These results are taken from patent US20090240045A1, “Organic Compounds” (Novartis AG, priority 2006, published 2009).

For orientation: Ki means the equilibrium dissociation constant of an inhibitor or competing ligand from its target.

This test concerns the target adenosine A2A receptor (Homo sapiens, UniProt P29274). The test can be described thus: Adenosine A2A receptor agonist assay (method of Murphree et al.). Format: binding. The following applies: method described by Murphree et al., Mol Pharmacol, Vol. 61, pp. 455-462 (2002). The text has this: Compounds of formula (I) and their pharmaceutically acceptable salts are useful as pharmaceuticals. In particular, they activate the adenosine A2A receptor, i.e., they act as A2A receptor agonists.

SMILES strings stand for the structures. Where a name gives a salt, the structure may show the parent alone.

adenosine A2A receptor, sequence (P29274 whole entry): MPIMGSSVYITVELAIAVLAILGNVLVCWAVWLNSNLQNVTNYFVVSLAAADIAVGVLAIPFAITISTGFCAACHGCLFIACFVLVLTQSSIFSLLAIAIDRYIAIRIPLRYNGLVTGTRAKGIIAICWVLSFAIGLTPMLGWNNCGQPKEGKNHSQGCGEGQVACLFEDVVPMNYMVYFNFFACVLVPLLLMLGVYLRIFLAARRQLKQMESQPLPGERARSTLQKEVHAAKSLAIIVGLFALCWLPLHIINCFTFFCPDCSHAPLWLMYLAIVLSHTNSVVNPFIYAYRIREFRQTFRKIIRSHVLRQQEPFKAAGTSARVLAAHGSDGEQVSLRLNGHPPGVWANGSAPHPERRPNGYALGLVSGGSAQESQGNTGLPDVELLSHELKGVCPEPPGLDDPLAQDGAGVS

In turn, `O=C(N[C@@H]1CCNC1)N[C@@H]1CCN(c2nc(NCC(c3ccccc3)c3ccccc3)c3ncn([C@@H]4O[C@H](CO)[C@@H](O)[C@H]4O)c3n2)C1` [Example 11, 1-{(R)-1-[9-(2R,3R,4S,5R)-3,4-Dihydroxy-5-hydroxymethyl-tetrahydro-furan-2-yl)-6-(2,2-diphenyl-ethylamino)-9H-purin-2-yl]-pyrrolidin-3-yl}-3-(R)-pyrrolidin-3-yl-urea trifluoroacetate] had a Ki of 12 nM. That is a double-digit nanomolar value.

In turn, `CCn1nnc([C@H]2O[C@@H](n3cnc4c(NCC(c5ccc(O)cc5)c5ccc(O)cc5)nc(N5CC[C@@H](NC(=O)c6ccc(N7CCOCC7)nc6)C5)nc43)[C@H](O)[C@@H]2O)n1` [Example 77, N-((R)-1-{6-[2,2-bis-(4-Hydroxy-phenyl)-ethylamino]-9-[(2R,3R,4S,5R)-5-(2-ethyl-2H-tetrazol-5-yl)-3,4-dihydroxy-tetrahydro-furan-2-yl]-9H-purin-2-yl}-pyrrolidin-3-yl)-6-morpholin-4-yl-nicotinamide trifluoroacetate] showed a Ki of 6 nM.
